Data taken from patent US10428063B2 (Bayer Pharma Aktiengesellschaft, priority 2015, dated 2019).

What follows are molecules tested against catalytic domain of human Bub1 (amino acids 704-1085) (Homo sapiens (Human), UniProt O43683) (assay: Bub1 kinase assay (TR-FRET)). Details: 10 μM ATP, 1 μM peptide substrate, recombinant catalytic domain of human Bub1, read-out: Bub1 kinase assay median IC50.
catalytic domain of human Bub1 (amino acids 704-1085), sequence (O43683 704-1085): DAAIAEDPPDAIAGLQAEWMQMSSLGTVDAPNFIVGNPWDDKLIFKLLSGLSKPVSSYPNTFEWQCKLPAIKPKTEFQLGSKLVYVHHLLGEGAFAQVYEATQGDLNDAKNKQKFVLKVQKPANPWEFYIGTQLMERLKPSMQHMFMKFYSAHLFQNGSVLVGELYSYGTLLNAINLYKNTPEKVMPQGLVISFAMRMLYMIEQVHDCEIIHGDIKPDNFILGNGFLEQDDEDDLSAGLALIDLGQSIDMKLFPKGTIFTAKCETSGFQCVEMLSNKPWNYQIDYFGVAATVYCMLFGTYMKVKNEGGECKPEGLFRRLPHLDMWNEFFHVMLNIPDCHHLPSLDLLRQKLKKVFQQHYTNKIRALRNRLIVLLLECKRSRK
Format: biochemical
From the text: Bub1-inhibitory activities of compounds described in the present invention were quantified using a time-resolved fluorescence energy transfer (TR-FRET) kinase assay which measures phosphorylation of the synthetic peptide Biotin-Ahx-VLLPKKSFAEPG (C-terminus in amide form), purchased from e.g. Biosyntan (Berlin, Germany) by the (recombinant) catalytic domain of human Bub1 (amino acids 704-1085), expressed in Hi5 insect cells with an N-terminal His6-tag and purified by affinity- (Ni-NTA) and size exclusion chromatography.
In a typical assay 11 different concentrations of each compound (0.1 nM, 0.33 nM, 1.1 nM, 3.8 nM, 13 nM, 44 nM, 0.15 μM, 0.51 μM, 1.7 μM, 5.9 μM and 20 μM) were tested in duplicate within the same microtiter plate. To this end, 100-fold concentrated compound solutions (in DMSO) were previously prepared by serial dilution (1:3.4) of 2 mM stocks in a clear low volume 384-well source microtiter plate (Greiner Bio-One, Frickenhausen, Germany), from which 50 nl of compounds were transferred into a black low volume test microtiter plate from the same supplier. Subsequently, 2 μl of Bub1 (the final concentration of Bub1 was adjusted depending on the activity of the enzyme lot in order to be within the linear dynamic range of the assay: typically ˜200 ng/ml were used) in aqueous assay buffer [50 mM Tris/HCl pH 7.5, 10 mM magnesium chloride (MgCl2), 200 mM potassium chloride (KCl), 1.0 mM dithiothreitol (DTT), 0.1 mM sodium ortho-vanadate, 1% (v/v) glycerol, 0.01% (w/v) bovine serum albumine (BSA), 0.005% (v/v) Trition X-100 (Sigma), 1× Complete EDTA-free protease inhibitor mixture (Roche)] were added to the compounds in the test plate and the mixture was incubated for 15 min at 22° C. to allow pre-equilibration of the putative enzyme-inhibitor complexes before the start of the kinase reaction, which was initiated by the addition of 3 μl 1.67-fold concentrated solution (in assay buffer) of adenosine-tri-phosphate (ATP, 10 μM final concentration) and peptide substrate (1 μM final concentration). The resulting mixture (5 μl final volume) was incubated at 22° C. during 60 min., and the reaction was stopped by the addition of 5 μl of an aqueous EDTA-solution (50 mM EDTA, in 100 mM HEPES pH 7.5 and 0.2% (w/v) bovine serum albumin) which also contained the TR-FRET detection reagents (0.2 μM streptavidin-XL665 [Cisbio Bioassays, Codolet, France] and 1 nM anti-phosho-Serine antibody [Merck Millipore, cat. #35-002] and 0.4 nM LANCE EU-W1024 labeled anti-mouse IgG antibody [Perkin-Elmer, product no. AD0077, alternatively a Terbium-cryptate-labeled anti-mouse IgG antibody from Cisbio Bioassays can be used]). The stopped reaction mixture was further incubated 1 h at 22° C. in order to allow the formation of complexes between peptides and detection reagents. Subsequently, the amount of product was evaluated by measurement of the resonance energy transfer from the Eu-chelate-antibody complex recognizing the Phosphoserine residue to the streptavidin-XL665 bound to the biotin moiety of the peptide. To this end, the fluorescence emissions at 620 nm and 665 nm after excitation at 330-350 nm were measured in a TR-FRET plate reader, e.g. a Rubystar or Pherastar (both from BMG Labtechnologies, Offenburg, Germany) or a Viewlux (Perkin-Elmer) and the ratio of the emissions (665 nm/622 nm) was taken as indicator for the amount of phosphorylated substrate. The data were normalised using two sets of control wells for high- (=enzyme reaction without inhibitor=0%=Minimum inhibition) and low- (=all assay components without enzyme=100%=Maximum inhibition) Bub1 activity. IC50 values were calculated by fitting the normalized inhibition data to a 4-parameter logistic equation (Minimum, Maximum, IC50, Hill; Y=Max+(Min−Max)/(1+(X/IC50)Hill)).
Molecule CN1CCc2[nH]c(-c3ccnc(NC(=O)[C@H]4C[C@H]4F)c3)c(Nc3ccccc3)c2C1=O (relative stereo) [Example 25, rel-(1R,2R)-2-fluoro-N-{4-[5-methyl-4-oxo-3-(phenylamino)-4,5,6,7-tetrahydro-1H-pyrrolo[3,2-c]pyridin-2-yl]pyridin-2-yl}cyclopropanecarboxamide] has an IC50 of 17.1 nM. With CC1(C)Cc2[nH]c(-c3ccncc3)c(Nc3ccccc3)c2C(=O)N1 [Example 1, 6,6-dimethyl-3-(phenylamino)-2-(pyridin-4-yl)-1,5,6,7-tetrahydro-4H-pyrrolo[3,2-c]pyridin-4-one] the IC50 was 11.6 nM. O=C1NCCc2[nH]c(-c3ccncc3)c(Nc3ccccc3)c21 [Example 2, 3-(phenylamino)-2-(pyridin-4-yl)-1,5,6,7-tetrahydro-4H-pyrrolo[3,2-c]pyridin-4-one] gave an IC50 of 7.89 nM. Cc1cnccc1-c1[nH]c2c(c1Nc1ccccc1)C(=O)NCC2 [Example 3, 2-(3-methylpyridin-4-yl)-3-(phenylamino)-1,5,6,7-tetrahydro-4H-pyrrolo[3,2-c]pyridin-4-one] showed an IC50 of 244 nM. Molecule CCn1c2c(c(Nc3ccccc3)c1-c1ccncc1)C(=O)NC(C)(C)C2 [Example 4, 1-ethyl-6,6-dimethyl-3-(phenylamino)-2-(pyridin-4-yl)-1,5,6,7-tetrahydro-4H-pyrrolo[3,2-c]pyridin-4-one] has an IC50 of 14.6 nM. In the case of CCn1c2c(c(Nc3ccccc3)c1-c1ccncc1)C(=O)NCC2 [Example 5, 1-ethyl-3-(phenylamino)-2-(pyridin-4-yl)-1,5,6,7-tetrahydro-4H-pyrrolo[3,2-c]pyridin-4-one], the IC50 is reported as 35.1 nM. With CC(C)(C)OC(=O)N1CCc2[nH]c(-c3ccncc3)c(Nc3ccccc3)c2C1=O [Example 6, tert-butyl 4-oxo-3-(phenylamino)-2-(pyridin-4-yl)-1,4,6,7-tetrahydro-5H-pyrrolo[3,2-c]pyridine-5-carboxylate] the IC50 was 10.9 nM. For O=C1NCCc2[nH]c(-c3ccncc3)c(Nc3ccc(F)cc3)c21 [Example 7, 3-[(4-fluorophenyl)amino]-2-(pyridin-4-yl)-1,5,6,7-tetrahydro-4H-pyrrolo[3,2-c]pyridin-4-one], the IC50 was 19.8 nM. With Nc1cc(-c2[nH]c3c(c2Nc2ccccc2)C(=O)NCC3)ccn1 [Example 8, 2-(2-aminopyridin-4-yl)-3-(phenylamino)-1,5,6,7-tetrahydro-4H-pyrrolo[3,2-c]pyridin-4-one] the IC50 was 138 nM. With COCCn1c2c(c(Nc3ccccc3)c1-c1ccncc1)C(=O)NCC2 [Example 9, 1-(2-methoxyethyl)-3-(phenylamino)-2-(pyridin-4-yl)-1,5,6,7-tetrahydro-4H-pyrrolo[3,2-c]pyridin-4-one] the IC50 was 354 nM. In the case of CC(C)C(=O)Nc1cc(-c2[nH]c3c(c2Nc2ccccc2)C(=O)N(C(=O)C(C)C)CC3)ccn1 [Example 10, 2-methyl-N-{4-[5-(2-methylpropanoyl)-4-oxo-3-(phenylamino)-4,5,6,7-tetrahydro-1H-pyrrolo[3,2-c]pyridin-2-yl]pyridin-2-yl}propanamide], the IC50 is reported as 319 nM. CCn1c2c(c(Nc3ccc(F)cc3)c1-c1ccncc1)C(=O)NCC2 [Example 11, 1-ethyl-3-[(4-fluorophenyl)amino]-2-(pyridin-4-yl)-1,5,6,7-tetrahydro-4H-pyrrolo[3,2-c]pyridin-4-one] showed an IC50 of 64.5 nM. In the case of Cc1cc(-c2[nH]c3c(c2Nc2ccccc2)C(=O)NCC3)ccn1 [Example 12, 2-(2-methylpyridin-4-yl)-3-(phenylamino)-1,5,6,7-tetrahydro-4H-pyrrolo[3,2-c]pyridin-4-one], the IC50 is reported as 15.4 nM. In the case of CCn1c2c(c(Nc3ccccc3)c1-c1ccnc(C)c1)C(=O)NCC2 [Example 13, 1-ethyl-2-(2-methylpyridin-4-yl)-3-(phenylamino)-1,5,6,7-tetrahydro-4H-pyrrolo[3,2-c]pyridin-4-one], the IC50 is reported as 972 nM. Work on CC(=O)Nc1cc(-c2[nH]c3c(c2Nc2ccccc2)C(=O)NCC3)ccn1 [Example 14] yielded an IC50 of 18.3 nM.
